Results published in patent US20240182460A1, “ALLOSTERIC CHROMENONE INHIBITORS OF PHOSPHOINOSITIDE 3-KINASE (PI3K) FOR THE TREATMENT OF DISEASE” (PETRA PHARMA CORPORATION, priority 2022, published 2024).
Like-named read-outs stand apart in the source and are kept apart here.

Experiment: Metabolic stability and intrinsic clearance in human liver microsomes (MICS)
Assay type: in vitro ADME
Conditions: pH 7.4
How it was run: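 Parent depletion by LC-MS/MS, run in duplicate, gave in vitro t1/2 from the slope of ln(% remaining) versus time, converted to CLint (μL/min/mg protein). Incubations: 1 μM compound, microsomes at 0.5 mg/mL, pH 7.4 phosphate, 37° C, ±1 mM NADPH, timepoints 0.5, 5, 15, 30, 60 min.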

| SMILES | microsomal CLint at 1 μM (human, microsomes) [µL/min/mg] | microsomal CLint at 1 μM (human liver microsomes 0.5 mg/mL, 1 μM compound, read-out: intrinsic clearance in human MICS) [µL/min/mg] |
| --- | --- | --- |
| CC(=O)Nc1ccc(-c2oc3c([C@@H](C)Oc4ccc(Cl)nc4C(N)=O)cc(C)cc3c(=O)c2C)cc1 [Example 58C, 3-[(1R)-1-[2-(4-Acetamidophenyl)-3,6-dimethyl-4-oxo-chromen-8-yl]ethoxy]-6-chloro-pyridine-2-carboxamide] | < 50 | – |
| Cc1cc([C@@H](C)Oc2ccc(Cl)nc2NS(C)(=O)=O)c2oc(-c3cnn(C)c3)c(C)c(=O)c2c1 [Example 149A, N-[6-Chloro-3-[(1R)-1-[3,6-dimethyl-2-(1-methylpyrazol-4-yl)-4-oxo-chromen-8-yl]ethoxy]-2-pyridyl]methanesulfonamide] | – | < 50 |
| Cc1cc([C@@H](C)Oc2ccc(Cl)nc2-c2noc(=O)[nH]2)c2oc(-c3ccc4c(c3)OC(F)(F)O4)c(C)c(=O)c2c1 [Example 46A, 3-[6-Chloro-3-[(1R)-1-[2-(2,2-difluoro-1,3-benzodioxol-5-yl)-3,6-dimethyl-4-oxo-chromen-8-yl]ethoxy]-2-pyridyl]-4H-1,2,4-oxadiazol-5-one] | < 50 | – |
| Cc1cc([C@@H](C)Oc2ccc(Br)nc2C(N)=O)c2oc(-c3ccc4nn(C)cc4c3)c(C)c(=O)c2c1 [Example 81C, 6-Bromo-3-[(1R)-1-[3,6-dimethyl-2-(2-methylindazol-5-yl)-4-oxo-chromen-8-yl]ethoxy]pyridine-2-carboxamide] | < 50 | – |
| Cc1cc([C@@H](C)Oc2ccc(Cl)nc2C(N)=O)c2oc(-c3cc(F)c4nn(C)cc4c3)c(C)c(=O)c2c1 [Example 17B, 6-Chloro-3-[(1R)-1-[2-(7-fluoro-2-methyl-indazol-5-yl)-3,6-dimethyl-4-oxo-chromen-8-yl]ethoxy]pyridine-2-carboxamide] | < 50 | – |
